Experimental data from US20050004038A1, “Bivalent inhibitors of Glutathione-S-Transferases” (priority 2003, published 2005).
Read-outs that look alike come from different tables or passages of the source.

How the values were obtained:
[1] = biological target: T1, human glutathione S-transferase P1-1 (GSTP1-1) (Homo sapiens, UniProt P09211); test: CDNB assay of GST activity and inhibition, GST P1-1; assay type: biochemical; conditions: first value of the cell GSTP1-1/GSTA1-1; CDNB assay, 20 nM GST
T1 construct: made in house; host or cells: E. coli
T1 sequence (P09211 2-210 limits assumed): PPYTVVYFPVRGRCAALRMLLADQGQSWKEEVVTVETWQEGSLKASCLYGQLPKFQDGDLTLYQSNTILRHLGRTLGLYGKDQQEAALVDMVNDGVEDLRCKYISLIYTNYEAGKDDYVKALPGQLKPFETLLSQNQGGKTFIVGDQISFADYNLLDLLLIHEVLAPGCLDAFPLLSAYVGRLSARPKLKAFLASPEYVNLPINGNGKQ
Experimental: (§1) GST isozymes. […] The enzyme was incubated with 10 mM dithiothreitol to ensure complete reduction of cysteine residues, followed by extensive dialysis to remove the reducing agent. […] Plasmodium GST (pGST) was a gift from Dr. Katja Becker (Justus Liebig University of Giessen), and murine GSTP and GSTA were gifts from Dr. Dave Eaton (University of Washington). Except where otherwise stated (i.e. testing of pGST in Example 6.4.5 and testing of murine GSTs in Example 6.4.7), GST isozymes tested were from human.
(§2) GST assays. Assays of GST activity and inhibition were performed with chloro-2,4-dinitrobenzene (CDNB) as the electrophilic substrate. Except where otherwise stated, GST concentration was 20 nM. […] Rates were determined by measuring absorption at 340 nm (λmax of glutathione-dinitrobenzene) for 1 minute on a Beckman DU 7400 spectrophotometer. For IC50 determinations, assays were performed at inhibitor concentrations ranging over at least […] (from 100-fold above the IC50 to 100-fold below). Data were fit to a sigmoidal dose-response function using GraphPad Prism to determine the 50% inhibitory concentration.

[2] = biological target: T2, human glutathione S-transferase A1-1 (GSTA1-1) (Homo sapiens, UniProt P08263); test: CDNB assay of GST activity and inhibition, GST A1-1; assay type: biochemical; conditions: second value of the cell GSTP1-1/GSTA1-1, 20 nM GST
T2 construct: made in house; host or cells: E. coli
T2 sequence (P08263 1-222): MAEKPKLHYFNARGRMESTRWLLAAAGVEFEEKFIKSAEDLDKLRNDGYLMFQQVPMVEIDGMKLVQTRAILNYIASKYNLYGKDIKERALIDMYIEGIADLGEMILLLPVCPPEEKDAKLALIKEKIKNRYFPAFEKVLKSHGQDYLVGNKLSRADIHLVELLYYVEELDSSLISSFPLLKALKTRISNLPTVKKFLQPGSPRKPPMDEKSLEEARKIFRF
Experimental: as §1, §2

murine GSTP = biological target: T3, murine GSTP (Mus musculus, UniProt P19157); test: CDNB assay, murine GSTP; assay type: biochemical
T3 construct: gift from Dr. Dave Eaton (University of Washington)
T3 sequence (P19157 2-210 limits assumed): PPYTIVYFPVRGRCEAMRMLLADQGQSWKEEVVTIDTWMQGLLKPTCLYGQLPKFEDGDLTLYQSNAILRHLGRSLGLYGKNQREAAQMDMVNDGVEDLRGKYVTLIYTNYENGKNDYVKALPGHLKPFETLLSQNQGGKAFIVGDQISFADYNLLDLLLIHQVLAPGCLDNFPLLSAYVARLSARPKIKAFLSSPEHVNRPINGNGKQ
Experimental: as §1, §2

Plasmodium GST (pGST) = biological target: T4, Plasmodium GST (pGST) (Plasmodium falciparum, UniProt Q8ILQ7); test: CDNB assay, Plasmodium GST; assay type: biochemical
T4 construct: gift from Dr. Katja Becker (Justus Liebig University of Giessen)
T4 sequence (Q8ILQ7 1-211): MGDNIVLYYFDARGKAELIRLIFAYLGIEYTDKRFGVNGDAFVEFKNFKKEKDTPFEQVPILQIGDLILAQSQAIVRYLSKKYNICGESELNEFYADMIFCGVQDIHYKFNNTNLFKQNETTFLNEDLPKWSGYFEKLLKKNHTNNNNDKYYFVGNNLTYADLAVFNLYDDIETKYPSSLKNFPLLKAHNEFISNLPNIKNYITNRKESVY
Experimental: as §1, §2
The IC50 values for pGST were determined for the bivalent compounds from Tables III and IV using the CDNB assay.

GSTA1-1 = biological target: T5, GSTA1-1 (Homo sapiens, UniProt P08263); test: GSH conjugation assay, absorbance changes at 270 nm, GSTA1-1; assay type: biochemical; conditions: absorbance at 270 nm
T5 construct: made in house; host or cells: E. coli
T5 sequence (P08263 1-222): T2 sequence (P08263 1-222)
Text: (§3) Since EA is known to be enzymatically conjugated to GSH by GSTs, these bivalent inhibitors might be predicted to be potential substrates for GSTA1-1 or GSTP1-1, such that they would also be catalytically conjugated with GSH.

GSTP1-1 = biological target: T6, GSTP1-1 (Homo sapiens, UniProt P09211); test: GSH conjugation assay, absorbance changes at 270 nm, GSTP1-1; assay type: biochemical; conditions: absorbance at 270 nm
T6 construct: made in house; host or cells: E. coli
T6 sequence (P09211 2-210 limits assumed): as the sequence (P09211 2-210 limits assumed) above
Text: as §3

[3] = system: chloroquine resistant Plasmodium falciparum strain Dd2; test: Parasite growth inhibition, ring stages, 48 hours; assay type: cell-based; conditions: single dose, strain Dd2, 48 hours
Experimental: (§4) A single dose of compound IVg^ was added to ring stages of chloroquine resistant Plasmodium falciparum strain Dd2 and incubated for 48 hours. […] An isobologram analysis was performed in two different chloroquine resistant parasites comparing IVg^ with chloroquine (AN143 with a PNG/South America genotype and INDO21 with the Indonesia genotype).

[4] = system: chloroquine resistant parasites AN143 and INDO21; test: Isobologram analysis with chloroquine; assay type: cell-based, Plasmodium falciparum
Experimental: as §4

[5] = system: human kidney 293 fibroblasts transfected with the IRES vector (no GST P1-1); test: Cell killing by hypericin photodynamic treatment, IRES vector control cells; assay type: cell-based
Experimental: (§5) Cells used in the assay were human kidney 293 fibroblasts transfected with the IRES vector plus and minus the coding region for human GST P1-1. Cells were cultured in DMEM supplemented with 10% FBS and 1% penicillin-streptomycin and maintained at 37° C. and 5% CO2.
(§6) Once the cells reached 80% confluency, the original media was removed and replaced with either (a) fresh media alone; (b) fresh media containing 1 uM hypericin (a porphyrin analogue employed in photodynamic cancer therapy), (c) the desired concentration of GST inhibitor IVg^, and (d) 1 μM hypericin plus the inhibitor 1 μM IVg^. The cells were incubated for a further 24 hours, in the dark, to allow the hypericin to be incorporated. The media from each plate was then removed and placed into a corresponding 15 ml centrifuge tube. This media is saved to monitor the “floater” cells that may have sloughed off during manipulations and treatment. The attached cells were washed two times with 1×PBS and fresh media is added back to the plates. The plates which were incubated overnight in the presence of hypericin were overlayed with DMEM without the phenol red indicator dye or 1×PBS supplemented with 10% FBS. […]
(§7) Following light treatment, cells were trypsinized, removed to their corresponding 15 ml tubes and maintained on ice until analyzed via flow cytometry.

[6] = system: human kidney 293 fibroblasts overexpressing human GST P1-1; test: Cell killing by hypericin photodynamic treatment, GST P1-1 overexpressing cells; assay type: cell-based; conditions: GSTP cells
Experimental: as §5, §6, §7

[7] = system: human kidney 293 fibroblasts; test: IC50 of the bivalent inhibitor alone in the cell line; assay type: cell-based; conditions: +/−0.2 SD, read-out: IC50 of inhibitor for the cells
Experimental: as §5
Once the cells reached 80% confluency, the original media was removed and replaced with either (a) fresh media alone; (b) fresh media containing 1 uM hypericin (a porphyrin analogue employed in photodynamic cancer therapy), (c) the desired concentration of GST inhibitor IVg^, and (d) 1 μM hypericin plus the inhibitor 1 μM IVg^. The cells were incubated for a further 24 hours, in the dark, to allow the hypericin to be incorporated. The media from each plate was then removed and placed into a corresponding 15 ml centrifuge tube. This media is saved to monitor the “floater” cells that may have sloughed off during manipulations and treatment. The attached cells were washed two times with 1×PBS and fresh media is added back to the plates. The plates which were incubated overnight in the presence of hypericin were overlayed with DMEM without the phenol red indicator dye or 1×PBS supplemented with 10% FBS.
as §7

[8] = biological target: T2, human glutathione S-transferase A1-1 (GSTA1-1); conditions: from the prior art (Ploemen et al.); cited from earlier work
[9] = CDNB assay, read-out: IC50 pGST
[10] = 1 μM inhibitor + 1 μM hypericin + 590 nm light
[11] = 1 uM hypericin + 590 nm light, no inhibitor

Row | Compound | IC50 [1] [nM] | IC50 [2] [nM] | also measured
1 | C=C(CC)C(=O)c1ccc(OCC(=O)NCc2cccc(CNC(=O)COc3ccc(C(=O)C(=C)CC)c(Cl)c3Cl)c2)c(Cl)c1Cl [IVc^] | 995 | 25 | IC50 (murine GSTP): 990 nM
2 | C=C(CC)C(=O)c1ccc(OCC(=O)NCCCCCC(=O)NCc2cc(CNC(=O)CCCCCNC(=O)COc3ccc(C(=O)C(=C)CC)c(Cl)c3Cl)cc(C(N)=O)c2)c(Cl)c1Cl [IVg] | 46.1 | 40.2 | IC50 (Plasmodium GST (pGST); [9]): ~3.3 µM; GSH conjugation by GSTA1-1 (GSTA1-1): no GSH conjugation; GSH conjugation by GSTP1-1 (GSTP1-1): no GSH conjugation
3 | C=C(CC)C(=O)c1ccc(OCC(=O)NCCCCCC(=O)NCc2cccc(CNC(=O)CCCCCNC(=O)COc3ccc(C(=O)C(=C)CC)c(Cl)c3Cl)c2)c(Cl)c1Cl [IVg^] | 27 | 64 | IC50 (Plasmodium GST (pGST); [9]): ~1.5 µM; IC50 (murine GSTP): 18 nM; EC50 [3]: 412 nM; synergy with chloroquine [4]: No evidence of synergy; Mean % Cell Death [5, 10]: 20.27%; Mean % Cell Death [6, 10]: 22.53%; IC50 [7]: 1130 nM
4 | C=C(CC)C(=O)c1ccc(OCC(=O)NCCCC(=O)NCCCC(=O)NCCCC(=O)NCc2cc(CNC(=O)CCCNC(=O)CCCNC(=O)CCCNC(=O)COc3ccc(C(=O)C(=C)CC)c(Cl)c3Cl)cc(C(N)=O)c2)c(Cl)c1Cl [IVi] | 142 | 96.5 | IC50 (Plasmodium GST (pGST)): ~5.5 µM
5 | C=C(CC)C(=O)c1ccc(OCC(=O)O)c(Cl)c1Cl [IVk*, ethacrynic acid, reference compound] | – | – | GSH conjugation by GSTA1-1 (GSTA1-1): readily conjugated to GSH; IC50 [8]: 5 µM
6 | NC(=O)c1cccc(CNC(=O)CCCC(=O)NCSCC(NC(=O)CCC(N)C(=O)O)C(=O)NCC(=O)O)c1 (stereo not shown) [Ih*, reference compound] | 39300 | > 10000 | –
7 | Cc1cc(O)c2c(=O)c3c(O)cc(O)c4c5c(O)cc(O)c6c(=O)c7c(O)cc(C)c8c1c2c(c34)c(c78)c65 [hypericin, reference compound] | – | – | Mean % Cell Death [5, 11]: 24.63%; Mean % Cell Death [6, 11]: 11.27%

More lines, main results first:

Row | IC50 [1] [nM] | IC50 [2] [nM] | Compound | also measured
8 | 200 | 110 | NC(CCC(=O)NC(CSCCCCCCCCCCCOC(=O)CCCCCCCSCC(NC(=O)CCC(N)C(=O)O)C(=O)NCC(=O)O)C(=O)NCC(=O)O)C(=O)O (stereo not shown) [Id] | –
9 | 190 | 140 | NC(CCC(=O)NC(CSCCCCCCCCCCCCOC(=O)CCCCCCCSCC(NC(=O)CCC(N)C(=O)O)C(=O)NCC(=O)O)C(=O)NCC(=O)O)C(=O)O (stereo not shown) [Ie] | –
10 | 3800 | 3800 | COC(=O)CCCCCCCSCC(NC(=O)CCC(N)C(=O)O)C(=O)NCC(=O)O (stereo not shown) [If*, reference compound] | –
11 | 24800 | > 10000 | NC(=O)c1cc(CNC(=O)CCCNC(=O)CSCC(NC(=O)CCC(N)C(=O)O)C(=O)NCC(=O)O)cc(CNC(=O)CCCNC(=O)CSCC(NC(=O)CCC(N)C(=O)O)C(=O)NCC(=O)O)c1 (stereo not shown) [Ig] | –
